Results on 15 compounds are retold here after PubChem BioAssay (NCI).

Test in all cases: NCI anticancer screen, dose series, 48 h
For assay [1], the system named is SF-539 CNS.
For assay [2], the system named is MALME-3M melanoma.
The subject of assay [3] is HL-60(TB) leukemia.
Assay [4] concerns UACC-62 melanoma.
For assay [5], the system named is NCI-H522 lung.
In assay [6] the test system is MOLT-4 leukemia.
For assay [7], the system named is HCC-2998 colon.
Assay [8] has as its system K-562 leukemia.
Assay [9] concerns A549 NSCLC.
The subject of assay [10] is SNB-75 CNS.

The structures appear in SMILES notation. Several values for one entry are separate records, joined by “and”; a condition that tells them apart may be missing. Identical values can stand only once.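 Method: 48-hour compound exposure of cells in 96-well plates, five concentrations, linear interpolation of endpoints. GI50 marks 50% less growth. TGI: concentration producing complete growth inhibition.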

`O=C(CCN1CCCCC1CO)Nc1ccc2c(c1)C(=O)c1ccc(NC(=O)CCN3CCCCC3CO)cc1C2=O` (configuration not stated): the TGI stood at 16.1 µM in [1]; 18.8 µM in [2]; 29.8 µM in [3]; 23.6 µM in assay [4]; 20.6 µM in assay [5]; 35.7 µM in assay [6]. Moreover, the TGI in assay [7] came to 20.8 µM; in [8], 46.1 µM; in [9], 82.4 µM.

`CC(=O)Nc1ncc2c(n1)-c1ccccc1OC2`: the TGI in assay [1], in [3], in assay [10], in assay [4], in assay [5] and in [6] was > 100 µM throughout. The TGI in assay [9] was > 100 µM.

As for `O=C1N2CCc3c([nH]c4ccccc34)C23CC2CCCC12S3` (configuration not stated), the TGI in assay [1], in assay [2], in [3], in [4], in assay [5] and in [6] was > 50 µM each time. For the same compound, the TGI in [8] and in [9] was > 50 µM in each case.

For `COCCCN1C(=O)C2c3[nH]c4ccccc4c3C3CCC(C(C)(C)C)CC3C2C1=O` (configuration not stated), the TGI in assay [1] was 70.2 µM; in assay [3], 54.5 µM; in [10], > 100 µM; in assay [4], > 10 µM; in [5], 55.4 µM; in assay [6], 70 µM. The results for the TGI in assay [7], in assay [8] and in assay [9] were 54.6 µM, > 10 µM and > 100 µM, respectively.

As to `CCOc1ccc(NC(=S)/N=C/C(C(=O)Nc2ccccc2C)=C(\C)O)cc1`, the TGI in assay [1], in assay [3], in assay [4], in [5], in assay [6] and in [7] was > 100 µM each time. The TGI in assay [8] and in assay [9] was > 100 µM in each case.

In the case of `CSc1s[s+]c(SC)c1-c1ccccc1`, the TGI was 32.4 µM in assay [1]; 24.6 µM in assay [2]; 60.6 µM in assay [3]; 28.3 µM in assay [4]; 27.9 µM in assay [5]; > 100 µM in assay [6]. Further, the figures for the TGI in [7], in assay [8] and in assay [9] were 21.5 µM, 50.3 µM and > 100 µM, respectively.

Consider `O=C(Nc1ccccc1)N1N=C(c2ccccc2)C1c1ccccc1` (configuration not stated), for which the TGI in assay [1] is 34.5 µM; in assay [2], 64.2 µM; in assay [3], > 100 µM; in assay [10] it was 32 µM; in assay [4], 45.7 µM; in [5] it was 37 µM. Besides, the TGI in [7] and in assay [9] was > 100 µM in each case.

As for `COc1cc([C@@H]2c3cc4c(cc3[C@@H](Nc3ccc(Cl)cc3C(=O)c3ccccc3Cl)[C@H]3COC(=O)[C@H]23)OCO4)cc(OC)c1OC`, the TGI in assay [1] is 0.198 µM; in assay [2], > 100 µM; in [10], > 100 µM; in [4], > 72.4 µM; in [5], 0.237 µM; in assay [6], > 100 µM. Further, the TGI in assay [7], in [8] and in assay [9] was > 100 µM each time.

Consider `CC(C)CC1c2[nH]c3ccccc3c2C[C@H]2C(=O)NC(COC(C)(C)C)C(=O)N12` (some centres not stated), for which the TGI in assay [2] worked out at 48.2 µM; in assay [3], 53.4 µM; in assay [4], 49.5 µM; in [5], 35.4 µM; in [6], 57.9 µM; in assay [8], 92.7 µM. Further, the TGI in assay [9] is > 100 µM.

Take `C=CCN1C(=O)/C(=C/c2ccc(Cl)cc2)N=C1SC1OC(COC(C)=O)C(OC(C)=O)C(OC(C)=O)C1OC(C)=O` (configuration not stated): the TGI in [1] is > 100 µM; in [2], 15 µM and > 100 µM; in assay [10], 13.8 µM and 81.5 µM; in assay [4], 35.7 µM and > 100 µM; in assay [5] it was 17.8 µM and 42.9 µM; in assay [6] it was > 100 µM and 43.2 µM. Also, the TGI in assay [7] is > 100 µM and 42.8 µM; in [8], > 100 µM and 76.3 µM; in assay [9], 65.7 µM. Also, the GI50 in assay [10] is 4.11 µM and 25.9 µM; in assay [4], 10.4 µM and 21.5 µM; in assay [7], 49.7 µM and 18.9 µM; in [8] it was > 61.7 µM and 13.1 µM.

Turning to `c1ccc(C/C(=N\Nc2nc3ccccc3o2)c2ccccn2)cc1`, the TGI in assay [1] stood at 1.21 µM; in [2] it was 1.82 µM; in assay [3], 1.68 µM; in assay [4], 2.49 µM; in assay [5], 18.9 µM; in assay [8], 3.66 µM. The TGI in assay [9] is > 34.6 µM.

On to `COc1cccc(N2N=C3c4ccccc4-n4c(nc5ccccc54)C3C2N)c1` (configuration not stated), for which the TGI in assay [1], in assay [2], in [3], in assay [10], in assay [4] and in [5] was > 100 µM each time. Also, the TGI in assay [7] and in assay [9] was > 100 µM each time.

Turning to `CC(=O)Nc1ccc(C(=O)N2N=C(C)/C(=C/c3cccc(O)c3)C2=O)cc1`, the TGI in assay [1], in assay [2], in assay [10], in [5], in assay [6] and in assay [7] was > 100 µM in each case. The TGI in assay [8] and in assay [9] was > 100 µM each time.

Regarding `CN1C(=O)[C@@]2(C=CC3(CC2)OCCO3)c2ccccc21`, the TGI in assay [3] is > 50 µM; in assay [10], 49.5 µM; in assay [4] it was > 50 µM; in [5], > 32.4 µM; in assay [6] it was > 50 µM; in [7] it was > 50 µM. Besides, the TGI in assay [8] and in assay [9] was > 50 µM in each case.

For `OCc1ccccc1OC1OC(CO)C(O)C(O)C1O` (configuration not stated), the TGI in [1], in assay [2], in assay [3], in [10], in assay [4] and in assay [5] was > 100 µM in each case. Further, the TGI in assay [6], in assay [7] and in [9] was > 100 µM throughout.
